Data: US4546084A, “Biologically pure culture of Actinomadura Sp” (Bristol-Myers Company, priority 1984, dated 1985)

Experiments:
[1] = system: P388 leukemia; assay: Effect on P388 leukemia in mice, second test (Table 9); format: in vivo, CDF1 female mice; details: D.1,4&7; for Survivors Day 5: Tox <4/6 alive; for MST % T/C: ≥125 significant
From the text: Antitumor activity of BBM-1644 was also indicated by a second test against P388 leukemia in mice, the results of which are shown below in Table 9. Details of the methods used in this test have been described in Cancer Chemother. Rep. 3: 1-87 (Part 3), 1972.
10^6 ascites cells, ip (plus titration)
Host: CDF1 .female. mice.
Tox: <4/6 mice alive on Day 5.
MST = median survival time.
Effect: % T/C = (MST treated/MST control) × 100.
Criteria: % T/C ≥ 125 considered significant antitumor

[2] = system: lysogenic bacterium; assay: Induction of prophage in lysogenic bacterium (ILB); format: cell-based; details: significant activity: T/C of >3.0
Procedure: The ability of BBM-1644 to induce prophage in lysogenic bacterium (ILB) was determined by the method of Lein et. al. (Nature 196: 783-784, 1962) using neocarzinostatin as a reference compound. The plaque count was made on agar plates containing test material (T) and control (C). A T/C ratio of the plaque counts of greater than 3 was considered significant and the ILB activity was expressed by the minimum inducing concentration of the test compound.

[3] = system: lymphocytic leukemia P388; assay: Antitumor activity in mice against lymphocytic leukemia P388 (Table 8); format: in vivo, mice (BDF1 strain); details: ip, significant ≥125%
Procedure: The antitumor activity of BBM-1644 was determined in mice (BDF1 strain) against lymphocytic leukemia P388. Each mouse was inoculated intraperitoneally with 3×10^5 cells of the tumor. Graded doses of the antibiotic were administered to mice intraperitoneally 24 hours after tumor implantation. The treatments were given once a day on days 1, 4 and 7 (q3d ×3 schedule) or 9 consecutive days (qd 1→9 schedule).

[4] = system: Micrococcus flavus D12; assay: In vitro antimicrobial activity, serial two-fold agar dilution; format: cell-based; details: nutrient agar medium
Procedure: (§1) The antibacterial activity of BBM-1644 was determined by the serial two-fold agar dilution method. Nutrient agar medium was used for gram-positive and gram-negative bacteria; nutrient agar medium containing 4% glycerol for acid-fast bacteria and Sabaouraud agar medium for fungi. The activity was expressed as minimum inhibitory concentration (MIC) in the agar medium and the results are shown in Table 6 along with those of neocarzinostatin.

[5] = system: Staphylococcus aureus FDA 209P; assay: as above; format: cell-based; details: nutrient agar medium
Procedure: as §1

[6] = system: Proteus vulgaris A9436; assay: as above; format: cell-based; details: nutrient agar medium
Procedure: as §1

[7] = system: Escherichia coli NIHJ; assay: as above; format: cell-based; details: nutrient agar medium
Procedure: as §1

[8] = system: Mycobacterium phlei D88; assay: as above; format: cell-based; details: nutrient agar medium containing 4% glycerol
Procedure: as §1

[9] = system: Streptococcus pyogenes A20201; assay: as above; format: cell-based; details: nutrient agar medium
Procedure: as §1

[10] = system: Micrococcus luteus PCI 1001; assay: as above; format: cell-based; details: nutrient agar medium
Procedure: as §1

[11] = system: Candida albicans IAM 4888; assay: as above; format: cell-based; details: Sabouraud agar medium
Procedure: as §1

[12] = system: Klebsiella pneumoniae D-11; assay: as above; format: cell-based; details: nutrient agar medium
Procedure: as §1

[13] = system: Pseudomonas aeruginosa A9930; assay: as above; format: cell-based; details: nutrient agar medium
Procedure: as §1

[14] = system: Bacillus subtilis PCI 219; assay: as above; format: cell-based; details: nutrient agar medium
Procedure: as §1

[15] = system: Staphylococcus aureus Smith; assay: as above; format: cell-based; details: nutrient agar medium
Procedure: as §1

[16] = system: Mycobacterium smegmatis 607 D87; assay: as above; format: cell-based; details: nutrient agar medium containing 4% glycerol
Procedure: as §1

With Neocarzinostatin the “AWC d.6” value ([1]; 0.05 mg/kg/inj IP) was -1.7 gm, the MST ([1]; 0.05 mg/kg/inj IP) was 12.0 days and the “Survivors Day 5” value ([1]; 0.05 mg/kg/inj IP) was 6/6. For the same substance, the “MST % T/C” value ([1]; 0.05 mg/kg/inj IP) was 133%, the “AWC d.6” value ([1]; 0.1 mg/kg/inj IP) was -1.2 gm and the MST ([1]; 0.1 mg/kg/inj IP) was 13.5 days. The “Survivors Day 5” value ([1]; 0.1 mg/kg/inj IP) was 6/6, the “MST % T/C” value ([1]; 0.1 mg/kg/inj IP) was 150% and the “AWC d.6” value ([1]; 0.2 mg/kg/inj IP) was -2.5 gm. For the same substance, the MST ([1]; 0.2 mg/kg/inj IP) was 15.0 days, the “Survivors Day 5” value ([1]; 0.2 mg/kg/inj IP) was 6/6 and the “MST % T/C” value ([1]; 0.2 mg/kg/inj IP) was 167%. The “AWC d.6” value ([1]; 0.4 mg/kg/inj IP) was -3.2 gm, the MST ([1]; 0.4 mg/kg/inj IP) was 15.5 days and the “Survivors Day 5” value ([1]; 0.4 mg/kg/inj IP) was 6/6. For the same substance, the “MST % T/C” value ([1]; 0.4 mg/kg/inj IP) was 172%, the “AWC d.6” value ([1]; 0.8 mg/kg/inj IP) was -4.3 gm and the MST ([1]; 0.8 mg/kg/inj IP) was 10.5 days. For the same substance, the “Survivors Day 5” value ([1]; 0.8 mg/kg/inj IP) was 6/6, the “MST % T/C” value ([1]; 0.8 mg/kg/inj IP) was 117% and the “AWC d.6” value ([1]; 1.6 mg/kg/inj IP) was -4.8 gm. For the same substance, the MST ([1]; 1.6 mg/kg/inj IP) was 8.0 days, the “Survivors Day 5” value ([1]; 1.6 mg/kg/inj IP) was 6/6 and the “MST % T/C” value ([1]; 1.6 mg/kg/inj IP) was 89%. The “ILB activity (T/C)” value ([2]; 0.1 mcg/ml) was 0.7, the “ILB activity (T/C)” value ([2]; 1 mcg/ml) was 10.8 and the “ILB activity (T/C)” value ([2]; 10 mcg/ml) was 20.4. For the same substance, the “ILB activity (T/C)” value ([2]; 100 mcg/ml) was 28.6, the “T/C (%) in MST” value ([3]; 0.01 mg/kg/day, gd 1→9) was 113% and the “T/C (%) in MST” value ([3]; 0.03 mg/kg/day, gd 1→9) was 125%. The “T/C (%) in MST” value ([3]; 0.03 mg/kg/day, q3d × 3) was 113%, the “T/C (%) in MST” value ([3]; 0.1 mg/kg/day, gd 1→9) was 138% and the “T/C (%) in MST” value ([3]; 0.1 mg/kg/day, q3d × 3) was 125%. The “T/C (%) in MST” value ([3]; 0.3 mg/kg/day, gd 1→9) was 163%, the “T/C (%) in MST” value ([3]; 0.3 mg/kg/day, q3d × 3) was 150% and the “T/C (%) in MST” value ([3]; 1 mg/kg/day, q3d × 3) was 163%. For the same substance, the MIC [4] was 1.6 µg/mL, the MIC [5] was 1.6 µg/mL and the MIC [6] was greater than 100 µg/mL. The MIC [7] was greater than 100 µg/mL, the MIC [8] was 12.5 µg/mL and the MIC [9] was 3.1 µg/mL. It also gave an MIC [10] of 1.6 µg/mL, an MIC [11] greater than 100 µg/mL and an MIC [12] greater than 100 µg/mL. The MIC [13] was greater than 100 µg/mL, the MIC [14] was 3.1 µg/mL and the MIC [15] was 0.8 µg/mL. For the same substance, the MIC [16] was 50 µg/mL.
